Some test systems named below: CAKI-1 renal; MCF7 breast; SF-268 CNS; SNB-75 CNS; MDA-MB-231 breast; HT29 colon; OVCAR-4 ovarian; RXF 393 renal; MOLT-4 leukemia; SK-MEL-28 melanoma.
Experiment in all cases: NCI-60 cell line screen, 48 h

Among the data in PubChem BioAssay (NCI) are GI50 and TGI values, retold here.

Values joined by “and” are separate entries in the source; they are usually repeats but may differ in a detail not shown here. Identical values can stand only once.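 Five compound concentrations were applied to cells in 96-well plates for 48 hours; endpoints were derived by simple linear interpolation of the resulting dose-response curve. Here, GI50 denotes the concentration required for 50% inhibition of growth. The concentration for full growth arrest is given as TGI.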

Regarding `COc1ccc(-c2cnc(-c3ccc(OC)cc3)n2-c2cc(OC)c(OC)c(OC)c2)cc1`, the GI50 in the assay on CAKI-1 renal was 23.8 µM; with MCF7 breast, 38.5 µM; in the assay on SF-268 CNS, 30.6 µM; with SNB-75 CNS, 12.6 µM; in the assay on MDA-MB-231 breast, 18.4 µM; in the assay on HT29 colon, 47.7 µM. The GI50 is 33.5 µM with OVCAR-4 ovarian, 14 µM in the assay on RXF 393 renal, 0.0131 µM in the assay on MOLT-4 leukemia and 24.4 µM in the assay on SK-MEL-28 melanoma. Moreover, the TGI was 80.2 µM in the assay with CAKI-1 renal; above 100 µM in the assay on MCF7 breast; above 100 µM in the assay with SF-268 CNS; 30.1 µM with SNB-75 CNS; 74.3 µM in the assay on MDA-MB-231 breast; above 100 µM in the assay on HT29 colon. The TGI was 58.3 µM with OVCAR-4 ovarian, 35.9 µM in the assay on RXF 393 renal, 0.044 µM in the assay on MOLT-4 leukemia and 92 µM with SK-MEL-28 melanoma.
In the case of `CC[C@]12CN3CCc4c([nH]c5ccccc45)[C@@](C(=O)OC)(c4cc5c(cc4OC)N(C)[C@H]4[C@@](O)(C(=O)OC)[C@H](OC(C)=O)[C@]6(CC)C=CCN7CC[C@]54[C@@H]76)CC(C3)[C@H]1O2` (stereo partly specified), the GI50 with CAKI-1 renal is 3.72 µM; in the assay on MCF7 breast it was 0.0181 µM; in the assay with SF-268 CNS, 0.226 µM; in the assay on HT29 colon, 0.131 µM; in the assay on OVCAR-4 ovarian it was 0.327 µM; in the assay on MOLT-4 leukemia it was 0.236 µM. Besides, the TGI in the assay on CAKI-1 renal was above 100 µM; in the assay with MCF7 breast it was above 33.9 µM; in the assay on SF-268 CNS, above 68.1 µM; with SNB-75 CNS, above 100 µM; with MDA-MB-231 breast, 7.02 µM and > 11 µM; with HT29 colon it was above 73.5 µM. Moreover, the TGI was above 100 µM with OVCAR-4 ovarian, above 100 µM with RXF 393 renal, above 100 µM in the assay with MOLT-4 leukemia and 93.1 µM in the assay with SK-MEL-28 melanoma.
As to `O=c1[nH]c(-c2ccc(Cl)c(Cl)c2)cn1-c1ccc(Cl)cc1`, the GI50 is 25.4 µM in the assay with CAKI-1 renal; 56.3 µM in the assay with MCF7 breast; 21.6 µM in the assay on SF-268 CNS; 18.6 µM with SNB-75 CNS; 15.2 µM with MDA-MB-231 breast; 41.8 µM in the assay on HT29 colon. The GI50 with OVCAR-4 ovarian was 19.7 µM; in the assay with RXF 393 renal, 32.7 µM; in the assay with MOLT-4 leukemia it was 20.8 µM; in the assay on SK-MEL-28 melanoma, 59.6 µM. The TGI in the assay on CAKI-1 renal is 49 µM; in the assay on MCF7 breast, above 100 µM; in the assay with SF-268 CNS, 59.3 µM; in the assay on SNB-75 CNS, 37.5 µM; with MDA-MB-231 breast it was 46 µM; in the assay with HT29 colon, above 100 µM. Moreover, the TGI in the assay with OVCAR-4 ovarian is 35.3 µM; in the assay with RXF 393 renal, 56.4 µM; with MOLT-4 leukemia, 38.9 µM; with SK-MEL-28 melanoma it was above 100 µM.
Regarding `COC(=O)[C@H](Cc1cn(C)cn1)NC(=O)[C@H](CC(C)C)NC(=O)Nc1cc(C(F)(F)F)cc(C(F)(F)F)c1`, the GI50 is above 10 µM with CAKI-1 renal; 2.52 µM in the assay on MCF7 breast; 3.16 µM in the assay on SF-268 CNS; above 10 µM in the assay on SNB-75 CNS; 4.64 µM in the assay with MDA-MB-231 breast; 8.05 µM with HT29 colon. In addition, the GI50 with OVCAR-4 ovarian is above 10 µM; with RXF 393 renal it was 3.46 µM; with MOLT-4 leukemia it was 3.4 µM; in the assay on SK-MEL-28 melanoma, 8 µM. The TGI with CAKI-1 renal is above 10 µM; in the assay on MCF7 breast it was 7.76 µM; with SF-268 CNS, above 10 µM; in the assay on SNB-75 CNS it was above 10 µM; with MDA-MB-231 breast it was above 10 µM; in the assay on HT29 colon, above 10 µM. Also, the TGI in the assay on OVCAR-4 ovarian, in the assay on RXF 393 renal, in the assay with MOLT-4 leukemia and in the assay on SK-MEL-28 melanoma was above 10 µM each time.
Regarding `CCOC(=O)Cc1csc(NC(=O)C(OC(=O)c2ccc(Cl)cc2)c2ccccc2)n1` (stereo unspecified), the GI50 in the assay with CAKI-1 renal was 61.9 µM; in the assay with MCF7 breast it was 34 µM; in the assay on SF-268 CNS, 28.7 µM; with SNB-75 CNS it was 26.1 µM; in the assay on MDA-MB-231 breast, 31.7 µM; with HT29 colon it was 27 µM. Besides, the GI50 with OVCAR-4 ovarian was 40.3 µM; with RXF 393 renal, 28.6 µM; with MOLT-4 leukemia, 26 µM; in the assay on SK-MEL-28 melanoma, 25.2 µM. Also, the TGI is above 100 µM in the assay on CAKI-1 renal; above 100 µM with MCF7 breast; above 100 µM in the assay with SF-268 CNS; 95.1 µM in the assay on SNB-75 CNS; above 100 µM in the assay on MDA-MB-231 breast; 88 µM in the assay on HT29 colon. Also, the TGI is above 100 µM in the assay with OVCAR-4 ovarian, 95.8 µM with RXF 393 renal, above 100 µM in the assay on MOLT-4 leukemia and 69.2 µM in the assay on SK-MEL-28 melanoma.
Consider `CCn1nc(C2CCN(C(=O)CCO)CC2)nc1-c1cnc(N)c(-c2nnc(C(C)(C)C)o2)n1`, for which the GI50 in the assay on CAKI-1 renal was 3.35 µM; with MCF7 breast, 0.375 µM; in the assay on SF-268 CNS it was 23.1 µM; in the assay with SNB-75 CNS it was 0.155 µM; in the assay with MDA-MB-231 breast, 15.1 µM; in the assay on HT29 colon, 0.63 µM. Besides, the GI50 with OVCAR-4 ovarian is 53.7 µM; in the assay on RXF 393 renal, 2.45 µM; in the assay with MOLT-4 leukemia, 2.33 µM; in the assay on SK-MEL-28 melanoma, 4.78 µM. Besides, the TGI in the assay on CAKI-1 renal is above 96.6 µM; with MCF7 breast it was above 100 µM; in the assay on SF-268 CNS, above 100 µM; in the assay with SNB-75 CNS, above 100 µM; in the assay with MDA-MB-231 breast, 68.2 µM; in the assay on HT29 colon, 22 µM. Also, the TGI with OVCAR-4 ovarian is above 100 µM; with RXF 393 renal, 20.9 µM; in the assay with MOLT-4 leukemia it was 39.2 µM; in the assay on SK-MEL-28 melanoma it was above 100 µM.
For `CCCCN(CCCC)P(=O)(Oc1ccccc1)Oc1ccccc1`, the GI50 was 2.42 µM with CAKI-1 renal; 4.83 µM in the assay on MCF7 breast; 8.86 µM with SF-268 CNS; 11.3 µM in the assay on SNB-75 CNS; 8.08 µM in the assay with MDA-MB-231 breast; 4.95 µM with HT29 colon. Moreover, the GI50 is 7.35 µM with OVCAR-4 ovarian, 1.85 µM with RXF 393 renal, 6.18 µM in the assay with MOLT-4 leukemia and 15.3 µM in the assay with SK-MEL-28 melanoma. Also, the TGI is 11.3 µM in the assay with CAKI-1 renal; 18.6 µM in the assay on MCF7 breast; 21.9 µM with SF-268 CNS; 27.3 µM with SNB-75 CNS; 23.3 µM with MDA-MB-231 breast; 21.6 µM in the assay on HT29 colon. For the same compound, the TGI worked out at 20.5 µM in the assay with OVCAR-4 ovarian, 5.97 µM in the assay with RXF 393 renal, 38.4 µM in the assay on MOLT-4 leukemia and 29.2 µM in the assay with SK-MEL-28 melanoma.
Regarding `COc1cc(CSc2nc3ccc(Cl)cc3c(=O)n2Cc2ccccc2)cc(OC)c1OC`, the GI50 was 3.19 µM in the assay with CAKI-1 renal; 1.34 µM in the assay with MCF7 breast; 7.33 µM in the assay with SF-268 CNS; 1.15 µM in the assay with SNB-75 CNS; 5.34 µM with MDA-MB-231 breast; 3.32 µM in the assay with HT29 colon. In addition, the GI50 is 4.99 µM with OVCAR-4 ovarian, 3.15 µM in the assay with RXF 393 renal, 4.41 µM in the assay with MOLT-4 leukemia and 3.05 µM with SK-MEL-28 melanoma. For the same compound, the TGI was above 100 µM in the assay on CAKI-1 renal; 45.5 µM in the assay on MCF7 breast; above 100 µM with SF-268 CNS; 4.09 µM in the assay on SNB-75 CNS; above 100 µM with MDA-MB-231 breast; above 100 µM in the assay on HT29 colon. The TGI was above 100 µM in the assay with OVCAR-4 ovarian, 13.4 µM in the assay with RXF 393 renal, above 100 µM in the assay with MOLT-4 leukemia and 43.9 µM in the assay with SK-MEL-28 melanoma.
As to `COc1cc2c(cc1OC)[C@@H]1C(=O)c3ccc4c(c3O[C@@H]1CO2)C[C@H](C(C)C)O4`, the GI50 was 4.41 µM in the assay with CAKI-1 renal; 2.66 µM with MCF7 breast; 11.7 µM with SF-268 CNS; 4.39 µM in the assay with SNB-75 CNS; 21.6 µM in the assay with MDA-MB-231 breast; 15.4 µM with HT29 colon. Besides, the GI50 in the assay with OVCAR-4 ovarian was 0.795 µM; in the assay with RXF 393 renal it was 16.4 µM; in the assay with MOLT-4 leukemia it was 6.81 µM; with SK-MEL-28 melanoma, 15.4 µM. For the same compound, the TGI in the assay with CAKI-1 renal is above 47.4 µM; in the assay on MCF7 breast it was above 52.2 µM; in the assay with SF-268 CNS, above 62.2 µM; with SNB-75 CNS it was 23.8 µM; in the assay with MDA-MB-231 breast, above 100 µM; in the assay on HT29 colon it was above 58.6 µM. Also, the TGI in the assay on OVCAR-4 ovarian is above 100 µM; in the assay with RXF 393 renal it was above 76.9 µM; in the assay on MOLT-4 leukemia, above 69.2 µM; in the assay with SK-MEL-28 melanoma, above 58.2 µM.
Regarding `COc1ccc(Nc2ncc(I)c(NCCCNC(=O)C3CCC3)n2)cc1`, the GI50 is 1.32 µM in the assay with CAKI-1 renal; 8.31 µM with MCF7 breast; 2.01 µM in the assay with SF-268 CNS; 0.464 µM in the assay with SNB-75 CNS; 1.66 µM in the assay on MDA-MB-231 breast; 13.1 µM in the assay on HT29 colon. Further, the GI50 in the assay with OVCAR-4 ovarian was 9.31 µM; with RXF 393 renal, 1.27 µM; with MOLT-4 leukemia, 4.32 µM; with SK-MEL-28 melanoma, 18 µM. Further, the TGI with CAKI-1 renal is 16 µM; with MCF7 breast, above 100 µM; with SF-268 CNS it was 29.9 µM; in the assay on SNB-75 CNS, 7.75 µM; in the assay with MDA-MB-231 breast, 5.31 µM; in the assay with HT29 colon, 71 µM. Further, the TGI in the assay on OVCAR-4 ovarian is 64.2 µM; in the assay on RXF 393 renal it was 6.54 µM; in the assay with MOLT-4 leukemia it was above 100 µM; in the assay with SK-MEL-28 melanoma, above 100 µM.
Regarding `COc1ccc(Sc2[nH]c(C=O)c3ccccc23)cc1`, the GI50 was 16.7 µM in the assay on CAKI-1 renal; 12.8 µM in the assay with MCF7 breast; 14.9 µM with SF-268 CNS; 11.9 µM with SNB-75 CNS; 13.4 µM in the assay with MDA-MB-231 breast; 4.02 µM in the assay with HT29 colon. Besides, the GI50 was 22.4 µM with OVCAR-4 ovarian, 10.7 µM in the assay with RXF 393 renal, 1.31 µM with MOLT-4 leukemia and 15.1 µM in the assay with SK-MEL-28 melanoma. For the same compound, the TGI in the assay on CAKI-1 renal was found to be 84 µM; in the assay on MCF7 breast it was 30.2 µM; with SF-268 CNS it was 31.2 µM; in the assay with SNB-75 CNS, 25.5 µM; in the assay with MDA-MB-231 breast, 34.2 µM; in the assay with HT29 colon it was 14.1 µM. In addition, the TGI with OVCAR-4 ovarian was found to be 61.7 µM; with RXF 393 renal, 33.3 µM; with MOLT-4 leukemia it was 19 µM; in the assay with SK-MEL-28 melanoma it was 30 µM.
